Entries after “also recorded” stand apart in the source; their conditions may differ.
How the values were obtained:
HT29 cells = experiment: Total binding and FITC surface exposure of CAIX bispecific adapters on HT29 cells; format: cell-based; conditions: 1 μM adapter, 1 hour room temperature; FIG. 3A
Description: (§1) HT29 cells or MDA-CAIX cells were incubated with 1 μM bispecific adapters with different ligands to CAIX and different polyethylene glycol (PEG) linkers in complete RPMI medium (RPMI+10% FBS) for one hour at room temperature. Free compounds were washed away, and fluorescent intensity of fluorescein isothiocyanate (FITC) was analyzed by flow cytometry.
(§2) To analyze the surface exposure of the FITC moiety, the stained cells were incubated with allophycocyanin (APC)-anti-FITC antibody on ice for 30 minutes. Then the cells were washed, and the fluorescent intensity of APC was analyzed by flow cytometer.

MDA-CAIX cells [1] = experiment: Total binding and FITC surface exposure of CAIX bispecific adapters on MDA-CAIX cells; format: cell-based; conditions: 1 μM adapter, 1 hour room temperature; FIG. 3C
Description: as §1, §2

HT29 tumor = experiment: In vivo efficacy of CAIX targeting bispecific adapters on HT29 tumor model; design: species or system mouse; conditions: NSG mice, subcutaneous HT29, 10 million anti-FITC CAR-T cells plus adapter; FIG. 7B
Description: (§3) HT29 cells (1.5 million) were implanted into each NOD scid gamma (NSG) mouse by subcutaneous injection. When the tumor volumes reached about 100 mm^3, the treatment groups were injected with 10 million anti-FITC CAR-T cells and bispecific adapters as shown in FIG. 7A. The tumor volume and body weight were monitored regularly. Tumor volume was calculated using the formular: (length*width^2)/2.

MDA-CAIX tumor cells = experiment: Retention and surface exposure of CAIX bispecific adapters in MDA-CAIX tumor cells from treated mice; format: in vivo, mouse; conditions: for CAIX levels of tumor cells (MFI of FITC after staining with 100 nM meta-CAL-PEG6-FITC in vitro): MDA-CAIX tumors from treated mice, FIG. 11C
Description: MDA-CAIX tumors from mice in different treatment groups were dissected and digested into single cells 24 hours after the last injections with CAIX bispecific adapters at 500 nmol/kg. The total retention of the bispecific adapters was determined by the FITC fluorescence intensity analyzed by flow cytometry. To estimate the CAIX protein levels in the tumor cells, the cells were stained with 100 nM meta-CAL-PEG6-FITC for 1 hour at room temperature and analyzed by flow cytometry. The FITC exposure of the bispecific adapters on the tumor cell surface was analyzed by flow cytometry after staining with APC-anti-FITC antibody on ice for 30 minutes. Surface exposure of FITC was also analyzed in the cells stained with 100 nM meta-CAL-PEG6-FITC.

MDA-CAIX tumors = experiment: In vivo efficacy of CAIX targeting bispecific adapters on MDA-CAIX tumor model; design: species or system mouse; conditions: NSG mice, subcutaneous MDA-CAIX, 10 million anti-FITC CAR T-cells plus adapter; FIG. 10B
Description: (§4) MDA-CAIX cells (5 million) were implanted into each NSG mouse by subcutaneous injection. When the tumor volumes reached about 100 mm^3, the treatment groups were injected with 10 million anti-FITC CAR T-cells and indicated bispecific adapters as shown in FIG. 10A. The tumor volume and body weight were monitored regularly. Tumor volume was calculated using the formular: (length*width^2)/2.

MDA-CAIX cells [2] = experiment: Bispecific adapter mediated anti-FITC CAR-T cell cytotoxicity to MDA-CAIX cells; format: cell-based
Description: (§5) Anti-FITC CAR-T cells were incubated with an equal number of MDA-CAIX cells in the presence of bispecific adapters at different concentrations. The number of MDA-CAIX cells was determined at the end of the co-culture, and the percentage of cell lysis was calculated using the following formula: [(number of untreated cells−number of treated cells)/number of untreated cells]*100%.
as §5, with “presence of the bispecific adapters” for “presence of bispecific adapters”
Anti-FITC CAR T cells were incubated with an equal number of MDA-CAIX cells in the presence of the bispecific adapters at different concentrations. The number of MDA-CAIX cells were determined at the end of the co-culture and the percentage of cell lysis was calculated using the following formula: [(number of untreated cells−number of treated cells)/number of untreated cells]*100%.

[3] = test system: anti-FITC CAR-T cells co-cultured with MDA-CAIX cells; experiment: Bispecific adapter mediated IFNγ release from anti-FITC CAR-T cells co-cultured with MDA-CAIX cells (ELISA); format: cell-based; conditions: adapter concentration between 0.001 nM and 1 nM; MDA-CAIX co-culture; FIGS. 4B, 5B
Description: as §5
Secretion of interferon gamma (IFNγ) from anti-FITC CAR-T cells was analyzed by enzyme-linked immunosorbent assay (ELISA) using the supernatants of the co-cultured medium at the end of the co-culture.
Secretion of IFNγ from anti-FITC CAR T cells was analyzed by ELISA using the supernatants of the co-cultured medium at the end of the co-culture.
Secretion of IFNγ from anti-FITC CAR T cells was analyzed by ELISA using the supernatants of the co-cultured medium at the end of the co-culture study.

HT29 tumor cells = experiment: Retention and surface exposure of CAIX bispecific adapters in HT29 tumor cells from injected mice; format: in vivo, mouse; conditions: 500 nmol/kg, 24 hours after injection, APC-anti-FITC staining; FIG. 8C
Description: HT29 tumor bearing mice were injected with CAIX bispecific adapters at 500 nmol/kg. After injection (24 hours later), the tumors were dissected and digested into single cells. The total retention of the bispecific adapters was determined by the FITC fluorescence intensity analyzed by flow cytometry. To analyze the FITC exposure of the bispecific adapters on the tumor cell surface, the digested tumor cells were stained with APC-anti-FITC antibody on ice for 30 minutes. After washing away unbound antibody, the fluorescent intensity of APC was analyzed by flow cytometry.

[4] = Body weight change of mice in HT29 tumor model; format: in vivo, mouse; conditions: HT29 tumor-bearing NSG mice treated with anti-FITC CAR-T cells plus adapter; FIG. 7C
Description: as §3

T cells = experiment: T cell counts in the blood and HT29 tumors from mice at end of treatments; design: species or system mouse; conditions: end of HT29 in vivo study
Description: At the end of the in vivo study on HT29 solid tumor model described in FIGS. 7A-7C, blood was collected from the mice, and the red blood cells in the blood were lysed by using red blood cell lysis buffer (BioLegend, San Diego, CA). The remaining cells were stained with anti-human CD3 antibody on ice for 30 minutes. The number of T cells was analyzed by flow cytometry. To analyze tumor-infiltrated T cells, tumors were dissected and digested to single cells. The digested cells were stained with Zombie Violet cell viability staining dye (BioLegend. San Diego, CA) and anti-human CD3 antibody. The percentage of CD3 T cells in total live cells was analyzed by flow cytometry.

[5] = test system: anti-FITC CAR-T cells co-cultured with HT29 cells; experiment: Bispecific adapter mediated anti-FITC CAR-T cell IFNγ release when co-cultured with HT29 cells (ELISA); format: cell-based; conditions: HT29 cells at 1:5 ratio, 40 hours
Description: (§6) Anti-FITC CAR-T cells were incubated with HT29 cells at 1:5 ratio in the presence of the bispecific adapters at different concentrations for 40 hours. Secretion of IFNγ from anti-FITC CAR-T cells was analyzed by ELISA using the supernatants of the co-cultured medium at the end of the co-culture study.
as §6, with “CAR T” for “CAR-T”

[6] = Body weight change of mice in KB tumor model; format: in vivo, mouse; conditions: KB tumor-bearing NSG mice; FIG. 16C
Description: as §4, with “KB” for “MDA-CAIX”, “(1” for “(5”, “50” for “100”, “CAR-T cells” for “CAR T-cells”, “16A.” for “10A.”, “formula:” for “formular:”

[7] = low concentrations (between 0.001 nM and 0.1 nM), FIG. 5A

Compound	total binding to HT29 cells (MFI of FITC) (HT29 cells)	growth of HT29 tumor (tumor volume) (HT29 tumor)	CAIX levels of tumor cells (MFI of FITC after staining with 100 nM meta-CAL-PEG6-FITC in vitro) (MDA-CAIX tumor cells)	growth of MDA-CAIX tumors (tumor volume) (MDA-CAIX tumors)	efficacy of anti-FITC CAR-T cell cytotoxicity, lysis (%) (MDA-CAIX cells [2]; [7])	IFNγ release from anti-FITC CAR-T cells [3]	surface retention and FITC exposure in HT29 tumors (MFI of APC-anti-FITC) (HT29 tumor cells)	also measured
NS(=O)(=O)c1nnc(NC(=O)CCCCCCCNC(=S)Nc2ccc(-c3c4ccc(=O)cc-4oc4cc(O)ccc34)c(C(=O)O)c2)s1 [Aza-FITC]	better total binding to HT29 cells than the other adapters	slightly inhibited the growth of HT29 tumor	slightly higher CAIX levels than tumors treated with meta-CAL-FITC with PEG3 or PEG6					total binding to MDA-CAIX cells (MFI of FITC) (MDA-CAIX cells [1]): better total binding to MDA-CAIX cells
NS(=O)(=O)c1c(F)c(F)c(S(=O)(=O)CCC(=O)NCCOCCOCCOCCNC(=S)Nc2ccc(-c3c4ccc(=O)cc-4oc4cc(O)ccc34)c(C(=O)O)c2)c(NC2CCCCCCC2)c1F [meta-CAL-PEG3-FITC]	better total binding to HT29 cells than the other adapters	slightly inhibited the growth of HT29 tumor		slightly inhibited the growth of MDA-CAIX tumors				
NS(=O)(=O)c1c(F)c(F)c(S(=O)(=O)CCC(=O)NCCOCCOCCOCCOCCOCCOCCNC(=S)Nc2ccc(-c3c4ccc(=O)cc-4oc4cc(O)ccc34)c(C(=O)O)c2)c(NC2CCCCCCC2)c1F [meta-CAL-PEG6-FITC]					higher efficacy than meta-CAL-PEG3-FITC	higher level of IFNγ release from anti-FITC CAR-T cells than ortho-CAL-PEG6-FITC and Aza-FITC; also recorded: higher levels of IFNγ release from anti-FITC CAR-T cells than meta-CAL-PEG3-FITC	better FITC exposure than meta-CAL-PEG3-FITC	efficacy of anti-FITC CAR-T cell cytotoxicity, lysis (%) (MDA-CAIX cells [2]; adapter between 0.001 nM and 10 nM, equal number of CAR-T and MDA-CAIX cells, FIG. 4A): higher than ortho-CAL-PEG6-FITC and Aza-FITC; surface retention and FITC exposure in MDA-CAIX tumors (MFI of APC-anti-FITC) (MDA-CAIX tumor cells; 24 hours after last injection at 500 nmol/kg, FIG. 11D): slightly better surface retention and FITC exposure than the other compounds
NS(=O)(=O)c1c(F)c(F)c(S(=O)(=O)CCC(=O)NCCOCCOCCOCCOCCOCCOCCOCCOCCOCCNC(=S)Nc2ccc(-c3c4ccc(=O)cc-4oc4cc(O)ccc34)c(C(=O)O)c2)c(NC2CCCCCCC2)c1F [meta-CAL-PEG9-FITC]		significantly inhibited the growth of HT29 tumor			higher efficacy than meta-CAL-PEG3-FITC	higher levels of IFNγ release from anti-FITC CAR-T cells than meta-CAL-PEG3-FITC	better FITC exposure than meta-CAL-PEG3-FITC	body weight change [4]: lost body weight; T cell counts in blood (T cells; anti-human CD3 staining, FIG. 9A): more T cells than the blood from other treatment groups; tumor-infiltrated T cells (CD3+ T cells/live cells) (T cells; digested tumors, FIG. 9B): more tumor-infiltrated T cells; IFNγ released from anti-FITC CAR-T cells ([5]; low concentrations (<0.1 nM), FIG. 15): highest level of IFNγ released from anti-FITC CAR-T cells
NS(=O)(=O)c1c(F)c(F)c(SCCC(=O)NCCOCCOCCOCCOCCOCCOCCNC(=S)Nc2ccc(-c3c4ccc(=O)cc-4oc4cc(O)ccc34)c(C(=O)O)c2)c(F)c1NC1CCCCCCC1 [ortho-CAL-PEG6-FITC]			complete eradication of CAIX^+ tumor cells by CAR T cells	significantly inhibited the growth of MDA-CAIX tumors				staining of anti-FITC antibody (MFI of APC-anti-FITC after staining with 100 nM meta-CAL-PEG6-FITC in vitro) (MDA-CAIX tumor cells; MDA-CAIX tumor cells from treated mice, FIG. 11E): almost no staining of anti-FITC antibody; IFNγ released from anti-FITC CAR-T cells ([5]; ELISA, FIGS. 14, 15): lower levels of IFNγ released from anti-FITC CAR-T cells; body weight change [6]: did not induce significant body weight loss; also recorded: didn't induce significant body weight loss

Reference: patent publication US20260263643A1, “BI-SPECIFIC ADAPTERS AND THEIR USE WITH UNIVERSAL CAR-T CELLS IN THE TREATMENT OF CAIX-EXPRESSING TUMORS” (Purdue Research Foundation, priority 2023, published 2026)
